Test results: patent US20090264384A1, “INDOLE, BENZIMIDAZOLE, AND BENZOLACTAM BORONIC ACID COMPOUNDS, ANALOGS THEREOF AND METHODS OF USE THEREOF” (Nuada, Inc., priority 2004, published 2009)
Read-outs that look alike come from different tables or passages of the source. Blank lines part the entries; values can stand above or below the molecule they belong to.

Assay: Various In Vitro Cell Biology Assays (Example 41, Tables 23-26)
Type: cell-based
Conditions: for % Inhibition of Control Values / inhibition at 3 µM / cytotoxicity at 24 h: 3×10^−6 M; for inhibition at 3 µM: PBMC, read-out: % Inhibition of Control Values; for cytotoxicity at 24 h: human, Cell viability (h) (PBMC/24 h), MTT; for IC50: TNF-α secretion (h) (PBMC)
Procedure: In each experiment, the respective reference compound was tested concurrently with the test compounds in order to assess the assay suitability. It was tested at several concentrations (for IC50 value determination).
The test compounds were assayed at 3×10^−6 M.
Results. The results are expressed as a percent of control values and as a percent inhibition of control values obtained in the presence of the test compounds.
The IC50 values (concentration causing a half-maximal inhibition of control values) and Hill coefficients (nH) were determined by non-linear regression analysis of the inhibition curves using Hill equation curve fitting, a summary of the data is shown in Table 26. The IC50 value for each reference compound is indicated was determined (data not shown) and was within accepted limits of the historic average ±0.5 log units.

[1] = IL-6 secretion (h) (PBMC), LPS 1 μg/ml, 24 h
[2] = 48 h, IL-10 secretion (h) (PBMC), PHA 3 μg/ml, 48 h
[3] = 24 h, IL-8 secretion (h) (PBMC), LPS 1 μg/ml, 24 h

Structure (SMILES): C[C@@H]1CC2C3CCC4=CC(=O)C=CC4(C)C3(F)[C@@H](O)CC2(C)C1(O)C(=O)CO (stereo partly drawn) [drawing 92]
% Inhibition of Control Values [1]: 57%

Structure (SMILES): C[C@@H]1CC2C3CCC4=CC(=O)C=CC4(C)C3(F)[C@@H](O)CC2(C)C1(O)C(=O)CO (stereo partly drawn) [drawing 93]
% Inhibition of Control Values [1]: −70%

Structure (SMILES): N#Cc1ncnc2c1ncn2CCCCCB(O)O [drawing 94]
inhibition at 3 µM (24 h, IL-6 secretion (h) (PBMC), LPS 1 μg/ml, 24 h): -30%

Structure (SMILES): N#Cc1ccc2c(ccn2CCCCCB(O)O)c1 [drawing 95]
inhibition at 3 µM [2]: 36%

Structure (SMILES): OB(O)CCCCn1c(C(F)(F)F)nc2ccccc21 [drawing 96]
inhibition at 3 µM [2]: 17%

Structure (SMILES): C[C@@H]1CC2C3CCC4=CC(=O)C=CC4(C)C3(F)[C@@H](O)CC2(C)C1(O)C(=O)CO (stereo partly drawn) [drawing 97]
inhibition at 3 µM [2]: 62%

Structure (SMILES): N#Cc1ncnc2c1ncn2CCCCCB(O)O [drawing 99]
inhibition at 3 µM [2]: 13%

Structure (SMILES): N#Cc1ccc2c(ccn2CCCCCB(O)O)c1 [drawing 100]
inhibition at 3 µM [3]: -63%

Structure (SMILES): OB(O)CCCCn1c(C(F)(F)F)nc2ccccc21 [drawing 101]
inhibition at 3 µM [3]: -29%

Structure (SMILES): C[C@@H]1CC2C3CCC4=CC(=O)C=CC4(C)C3(F)[C@@H](O)CC2(C)C1(O)C(=O)CO (stereo partly drawn) [drawing 102]
inhibition at 3 µM [3]: 67%

Structure (SMILES): Nc1nc(Cl)c2ncn(CCCCCB(O)O)c2n1 [drawing 103]
inhibition at 3 µM [3]: 8%

Structure (SMILES): N#Cc1ncnc2c1ncn2CCCCCB(O)O [drawing 104]
inhibition at 3 µM [3]: -33%

Structure (SMILES): N#Cc1ccc2c(ccn2CCCCCB(O)O)c1 [drawing 105]
cytotoxicity at 24 h: 0%

Structure (SMILES): OB(O)CCCCn1c(C(F)(F)F)nc2ccccc21 [drawing 106]
cytotoxicity at 24 h: -6%

Structure (SMILES): C[C@@H]1CC2C3CCC4=CC(=O)C=CC4(C)C3(F)[C@@H](O)CC2(C)C1(O)C(=O)CO (stereo partly drawn) [drawing 107]
cytotoxicity at 24 h: 6%

Structure (SMILES): Nc1nc(Cl)c2ncn(CCCCCB(O)O)c2n1 [drawing 108]
cytotoxicity at 24 h: 6%

Structure (SMILES): N#Cc1ncnc2c1ncn2CCCCCB(O)O [drawing 109]
cytotoxicity at 24 h: 5%

Structure (SMILES): COc1ccc(-c2nc3ccccc3n2CCCCCB(O)O)cc1 [drawing 110]
IC50 (LPS 1 μg/ml, 24 h): 200 nM

IC50 (LPS 1 μg/ml, 24 h): > 3000 nM
Structure (SMILES): OB(O)CCCCCn1c(-c2cscn2)nc2ccccc21 [drawing 111]

Structure (SMILES): N#Cc1ccc2c(ccn2CCCCCB(O)O)c1 [drawing 112]
IC50 (LPS 1 μg/ml, 24 h): 1500 nM

IC50 (LPS 1 μg/ml, 24 h): 36 nM
Structure (SMILES): C[C@@H]1CC2C3CCC4=CC(=O)C=CC4(C)C3(F)[C@@H](O)CC2(C)C1(O)C(=O)CO (stereo partly drawn) [drawing 114]
